This experiment addresses Full-length PRMT5 enzyme (NCBI Reference sequence NP_006100.2) co-expressed with His6-MEP50 (Homo sapiens (Human), UniProt O14744). The experiment is described as follows: PRMT5 Biochemical Assay. Conditions: histone H4 derived peptide substrate 200 nM, 1 μM S-Adenosyl methionine, 4 hours at 37° C., Transcreener EPIGEN fluorescence polarisation. As for the experimental part:
Compounds of the invention may be tested for in vitro activity in the following assay: A histone H4 derived peptide is used as substrate (amino acid sequence: […]N H2). Full-length PRMT5 enzyme (NCBI Reference sequence NP_006100.2) was co-expressed with His6-MEP50 in insect cells and purified via Nickel immobilized metal affinity and gel filtration chromatography (“the enzyme”).
The 6 μL assay reactions are run in Greiner brand black 384-well low volume plates. All reactions contained assay buffer (phosphate buffered saline, 0.01% (v/v) Tween-20, 0.01% (w/v) albumin from chicken egg white, 1 mM dithiothreitol, 200 nM peptide substrate, 1 μM S-Adenosyl methionine, and 15 ng/reaction enzyme, with the enzyme being omitted from negative control reactions. Compounds were added in a volume of 100 nL from dilution series prepared in DMSO, positive and negative control reactions receiving the same volume DMSO without compound. The plates were sealed with adhesive seals and incubated for 4 hours at 37° C. Reaction progress was measured using the Transcreener™ EPIGEN methyltransferase assay (BellBrook Labs, Madison, Wis.) as recommended by the manufacturer. To each reaction 2 μL detection mix were added, containing coupling enzymes, fluorescence polarisation tracer, and AMP antibody. Plates were incubated for 90 minutes before being read on a PerkinElmer EnVision™ plate reader in fluorescence polarisation mode.
A general note: Polarisation of emitted light reports the rotation of a fluorescent probe.

Sequence of Full-length PRMT5 enzyme (NCBI Reference sequence NP_006100.2) co-expressed with His6-MEP50 (O14744 whole entry): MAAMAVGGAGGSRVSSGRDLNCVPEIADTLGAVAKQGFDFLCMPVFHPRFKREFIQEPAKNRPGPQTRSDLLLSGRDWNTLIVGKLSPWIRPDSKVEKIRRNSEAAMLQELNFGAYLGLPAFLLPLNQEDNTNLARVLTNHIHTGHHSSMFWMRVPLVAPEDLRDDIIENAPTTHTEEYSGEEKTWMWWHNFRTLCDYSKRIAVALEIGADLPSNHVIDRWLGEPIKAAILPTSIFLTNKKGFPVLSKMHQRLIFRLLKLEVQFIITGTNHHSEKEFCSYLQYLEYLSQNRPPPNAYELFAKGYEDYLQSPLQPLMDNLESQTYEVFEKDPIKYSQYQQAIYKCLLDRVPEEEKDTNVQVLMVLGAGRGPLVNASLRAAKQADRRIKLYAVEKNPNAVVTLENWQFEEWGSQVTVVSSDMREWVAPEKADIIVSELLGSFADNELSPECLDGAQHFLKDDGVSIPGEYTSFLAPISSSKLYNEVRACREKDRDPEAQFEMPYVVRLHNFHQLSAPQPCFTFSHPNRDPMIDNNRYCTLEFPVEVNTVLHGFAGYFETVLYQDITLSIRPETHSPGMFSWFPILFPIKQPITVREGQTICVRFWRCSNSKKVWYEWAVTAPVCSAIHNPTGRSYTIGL
Sequence of Full-length PRMT5 enzyme (NCBI Reference sequence NP_006100.2) co-expressed with His6-MEP50 (Q9BQA1 whole entry partner): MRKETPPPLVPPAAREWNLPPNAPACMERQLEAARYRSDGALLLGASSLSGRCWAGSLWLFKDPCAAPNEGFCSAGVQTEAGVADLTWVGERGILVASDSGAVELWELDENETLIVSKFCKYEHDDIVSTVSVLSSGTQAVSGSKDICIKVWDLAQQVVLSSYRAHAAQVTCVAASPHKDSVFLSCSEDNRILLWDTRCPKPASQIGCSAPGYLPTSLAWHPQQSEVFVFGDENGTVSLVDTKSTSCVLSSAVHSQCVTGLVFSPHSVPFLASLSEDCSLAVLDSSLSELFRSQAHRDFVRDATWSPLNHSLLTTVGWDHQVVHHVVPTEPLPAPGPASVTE

Consider `CN1CCCC(c2ccc3nc(-c4ccc(COc5ccccc5)cc4)[nH]c3n2)C1` (centres unmarked) [Example 99, 5-(1-methylpiperidin-3-yl)-2-(4-(phenoxymethyl)phenyl)-3H-imidazo[4,5-b]pyridine], for which 148 nM corresponded to half-maximal inhibition (IC50). In the case of `CC(C)(C)OC(=O)N1CCC(CNc2ccc3nc(-c4ccc(OCc5ccccc5)cc4)[nH]c3n2)CC1` [Example 31, tert-butyl 4-(((2-(4-(benzyloxy)phenyl)-3H-imidazo[4,5-b]pyridin-5-yl)amino)methyl)piperidine-1-carboxylate] it was 1240 nM. As for `CCS(=O)(=O)N1CCN(c2ccc3nc(-c4ccc(OCc5ccccc5)cc4)[nH]c3n2)CC1` [Example 27, 2-(4-(benzyloxy)phenyl)-5-(4-(ethylsulfonyl)piperazin-1-yl)-3H-imidazo[4,5-b]pyridine], the figure is 148 nM; as for `O=S(=O)(C1CC1)N1CCC(c2ccc3nc(-c4ccc(OCc5ccccc5)cc4)[nH]c3n2)CC1` [Example 89, 2-(4-(benzyloxy)phenyl)-5-(1-(cyclopropylsulfonyl)piperidin-4-yl)-3H-imidazo[4,5-b]pyridine], 1340 nM. As for `c1ccc(COc2ccc(-c3nc4ccc(NC5CCNCC5)nc4[nH]3)cc2)cc1` [Example 53], the figure is 581 nM.

For the molecule `Cn1cc(-c2ccc3nc(-c4ccc(OCc5ccccc5)cc4)[nH]c3n2)cn1` [Example 107], the IC50 (in general, the point on the concentration scale where inhibition reaches its midpoint) came out at 1670 nM. This IC50 is about 2.9-fold higher than that of the molecule before. In the case of `CCS(=O)(=O)N1CCN(c2ccc3nc(-c4ccc(OCc5ccccc5)c(C)c4)[nH]c3n2)CC1` [Example 74, 2-(4-(benzyloxy)-3-methylphenyl)-5-(4-(ethylsulfonyl)piperazin-1-yl)-3H-imidazo[4,5-b]pyridine] it was 1360 nM; in that of `CCS(=O)(=O)N1CCN(c2ccc3nc(-c4ccc(OCc5ccccc5)c(-c5cccnc5)c4)[nH]c3n2)CC1` [Example 71], 542 nM; in that of `c1ccc(COc2ccc(-c3nc4ccc(-c5cncnc5)nc4[nH]3)cc2)cc1` [Example 106], 9000 nM. `CC(=O)N1CCC(c2cnc3[nH]c(-c4ccc(COc5ccccc5)cc4)nc3c2)CC1` [Example 10, 1-(4-(2-(4-(phenoxymethyl)phenyl)-3H-imidazo[4,5-b]pyridin-6-yl)piperidin-1-yl)ethanone] had a half-inhibitory concentration (IC50) of 375 nM. `CS(=O)(=O)N1CCC(c2ccc3nc(-c4ccc(OCc5ccccc5)cc4)[nH]c3n2)CC1` [Example 87, 2-(4-(benzyloxy)phenyl)-5-(1-(methylsulfonyl)piperidin-4-yl)-3H-imidazo[4,5-b]pyridine]: half-maximal inhibition (IC50) was put at 355 nM.

The molecule `c1ccc(COc2ccc(-c3nc4ccc(NCC5CCCCN5)nc4[nH]3)cc2)cc1` (centres unmarked) [Example 51] showed an IC50 of 547 nM. This IC50 is about 1.5-fold higher than that of the molecule before.

`CCS(=O)(=O)N1CCN(c2ccc3nc(-c4ccc(OCc5ccccc5)c(-c5cnn(C)c5)c4)[nH]c3n2)CC1` [Example 69, 2-(4-(benzyloxy)-3-(1-methyl-1H-pyrazol-4-yl)phenyl)-5-(4-(ethylsulfonyl)piperazin-1-yl)-3H-imidazo[4,5-b]pyridine] came in with an IC50 of 447 nM. The IC50 values of the last two molecules are within 1.5-fold of each other. As for `CN1CCN(c2ccc3nc(-c4ccc(OCc5ccccc5)cc4)[nH]c3n2)CC1` [Example 26, 2-(4-(benzyloxy)phenyl)-5-(4-methylpiperazin-1-yl)-3H-imidazo[4,5-b]pyridine], the figure is 132 nM; as for `c1ccc(COc2ccc(-c3nc4ccc(N5CCNCC5)nc4[nH]3)cc2)cc1` [Example 47, 2-(4-(benzyloxy)phenyl)-5-(piperazin-1-yl)-3H-imidazo[4,5-b]pyridine], 197 nM; as for `[O-][S+]1CCN(c2ccc3nc(-c4ccc(OCc5ccccc5)cc4)[nH]c3n2)CC1` [Example 24, 4-(2-(4-(benzyloxy)phenyl)-3H-imidazo[4,5-b]pyridin-5-yl)thiomorpholine 1-oxide], 570 nM.

`CCS(=O)(=O)N1CCC(c2ccc3nc(-c4ccc(OCc5ccccc5)cc4)[nH]c3n2)CC1` [Example 90, 2-(4-(benzyloxy)phenyl)-5-(1-(ethylsulfonyl)piperidin-4-yl)-3H-imidazo[4,5-b]pyridine] came in with an IC50 of 148 nM.
